{
  "source": "patent US11553713B2",
  "about": "“Polyalcohol, carbohydrate, nucleobase and nucleotide compositions and uses thereof” (Chunbo Zhang, priority 2015, dated 2023)",
  "key": {"mosquitoes": {"system": "mosquitoes", "assay": "Toxicity of rFOH by air exposure (container protected with a net to prevent ingestion)", "assay_type": "in vivo", "experimental": "The CPDA contained 3.33 g sodium citrate, 0.376 g citric acid, 4.02 g glucose, 0.28 g sodium monobasic phosphate, and 0.346 g adenine in 1 liter of solution. (2R)-3-fluoropropane-1,2-diol (rFOH) was used as the active agent at a concentration of 1%.\n100 mosquitoes were placed in a 6-liter cage with a container containing 1% rFOH in 10% sucrose with CPDA for 48 hours at room temperature (25-28° C.). The container was protected with a net to prevent ingestion of rFOH by the mosquitoes. […] The same result was obtained even when 10% of rFOH was used."}, "female mosquitoes": {"system": "female mosquitoes", "assay": "Efficacy by ingestion: feeder test in 6-liter cage, death rate of female mosquitoes", "assay_type": "in vivo", "conditions": "for death after 24 hours of feeding: fasted 24 hours", "from_the_text": "Female mosquitoes were used in the experiment because only female mosquitoes bite humans and animals and transmit infectious diseases.\n(§1) (2R)-3-fluoropropane-1,2-diol (rFOH) was used as the active agent at various concentrations. A sugar feeder containing 10% sucrose, which is a regular mosquito feeder in a laboratory setting, was used as a regular food source in free choice studies. A free choice study allows the pests to select which feeder to feed on when given two or more choices.\nIn a two-choice test, a 6-liter cage was supplied with two feeders, one contained 5% rFOH and 10% sucrose in CPDA and the other one contained 10% sucrose without any rFOH or CPDA. 100 female mosquitoes were placed in the cage having the two feeders such that the mosquitoes chose freely which feeder to feed on. After 24 hours of feeding in the cage, over 80% of mosquitoes were dead. […] When the concentration of rFOH was reduced to 1% or 0.15%, its effectiveness remained the same. Over 80% of mosquitoes were dead due to 24 hours of feeding with rFOH.\nSubsequent to 24 hours of feeding, rFOH feeder was removed from the cage and a regular sugar feeder (10% sucrose) was provided. In the next day, 5-20% of residual death was observed, indicating a delayed death after rFOH ingestion.\nIn a further study, mosquitoes were fasted for 24 hours before feeding to ensure that all mosquitoes have the capacity for food intake. […] Thus, fasting is not a cause of mosquito death during a series of experiments.\nThe experiments determined that 0.1% rFOH was sufficient to achieve 50% death (LD50) under various conditions. In one study, 100 mosquitoes were caged in a 6-liter space and fasted for 24 hours. Subsequently, the mosquitoes were fed on two feeders giving their free choices for 0.1% rFOH containing 10% sucrose in CPDA or 10% sucrose without rFOH for 24 hours, resulting in 43% death. In a parallel study in which the cage was supplied with a single feeder, the 0.1% rFOH feeder containing 10% sucrose in CPDA, which caused 44% of death after 24 hours of feeding.\nSimilar experiments as disclosed above were performed with various rFOH concentrations under various conditions. The rFOH composition contained 10% sugar in CPDA solution unless specified otherwise.\nSimilar experiments as disclosed above were performed on female mosquitoes to determine LD50. The rFOH composition contained 10% sugar in CPDA solution unless specified otherwise.\nSimilar experiments as disclosed above were performed on female mosquitoes using different active agents at various concentrations. The active agent composition contained 10% sugar in CPDA solution unless specified otherwise."}, "male mosquitoes": {"system": "male mosquitoes", "assay": "Efficacy by ingestion: feeder test, death rate of male mosquitoes", "assay_type": "in vivo", "conditions": "0.1% rFOH, 10% sugar in CPDA, 24 hrs, 24 hrs fasting, sugar feeder provided for free choice", "experimental": "as §1\nSimilar experiments as disclosed above were performed on female mosquitoes and male mosquitoes. The rFOH composition contained 10% sugar in CPDA solution unless specified otherwise."}, "Escherishia coli DH5α": {"system": "Escherishia coli DH5α", "assay": "MIC test, broth microdilution (CLSI M07-A9)", "assay_type": "cell-based", "conditions": "Tryptic soy broth, 37° C. for 24 hrs", "experimental": "(§2) The effects of pesticides disclosed herein on various bacteria were tested by determining the minimal inhibitory concentration (MIC) of the pesticides. MIC of an antimicrobial agent is the lowest concentration of the antimicrobial agent that inhibits a given bacterial isolate from multiplying and producing visible growth in the test system. The MIC of rFOH and BrOH was determined in the laboratory by incubating a known quantity of bacteria with a series of dilutions of the active agents and comparing their effects with those of known antimicrobial agents. Table 6 lists the representative bacterial strains and the conditions in MIC tests. Antimicrobial tests of the active agents were conducted according to “Methods for Dilution Antimicrobial Susceptibility Tests for Bacteria That Grow Aerobically” by Clinical and Laboratory Standards Institute (CLSI) (CLSI document M07-A9, 2012). In the study, methicillin/oxacillin resistant Staphylococcus aureus (MRSA) strain (ATCC 43300) was routinely under screening with 4 ug/ml oxacillin. Escherishia coli DH5α was a nonpathogenic laboratory strain. […] When the DH5α/plasmid (DH5P) colony was used, the colony was maintained in the presence of 100 ug/ml ampicillin.\n(§3) MIC tests were conducted in 96 well microtiter plates with a total volume of 150 ul broth in each well. The directly colony suspension method (CLSI document M07-A9, 2012) was applied to obtain MIC for antimicrobial tests of the active agents. After colonies were freshly incubated overnight, colonies were suspended in sterile water to adjust the inoculum to a turbidity equivalent to a 0.5 McFarland standard (corresponding to approximately 1.5×10^8 CFU/ml). Within 10 minutes, the inoculum was adjusted by dilution in broth to reach a final concentration of 5×10^5 CFU/ml. A series of various concentrations of the active agents were applied to determine the MIC. In the same microtiter plate, an internal standard formulated by a concentration series of standard antibiotic agent was incubated in parallels to allow for back-to-back comparison."}, "[1]": {"system": "Methicillin/oxacillin resistant Staphylococcus aureus (MRSA) strain (ATCC 43300)", "assay": "MIC test, broth microdilution (CLSI M07-A9)", "assay_type": "cell-based", "conditions": "Mueller Hinton broth with 2% NaCl and 50 ug/ml CaCl2, 35° C. for 24 hrs", "experimental": "as §2, §3"}, "[2]": {"system": "Escherishia coli DH5α transformed with a pcDNA3 plasmid (DH5P)", "assay": "MIC test, broth microdilution (CLSI M07-A9)", "assay_type": "cell-based", "conditions": "Tryptic soy broth, 37° C. for 24 hrs", "experimental": "as §2, §3"}},
  "note": "Where “and” joins values, the source holds several entries; their conditions need not be identical. Equal values may be shown once.",
  "data": [
    {"smiles": "OC[C@@H](O)CF", "note": "[rFOH, (2R)-3-fluoropropane-1,2-diol]", "values": [
      {"measurement": "death of mosquito by air exposure", "setting": "mosquitoes; 1% rFOH in 10% sucrose with CPDA, container protected with net, 48 hours, room temperature (25-28° C.)", "value": "No death"},
      {"measurement": "death of pests when exposed but not ingested", "setting": "mosquitoes; concentration 100-fold as high as the LD50, not ingested", "value": "no death"},
      {"measurement": "Death Rate", "setting": "female mosquitoes; 0.1% rFOH, 5% sugar, CPDA, 5% maltose, 24 hrs, 24 hrs fasting, sugar feeder provided for free choice", "value": 54, "unit": "%"},
      {"measurement": "Death Rate", "setting": "female mosquitoes; 0.1% rFOH, 5% sugar, CPDA, 25% Maple Syrup, 24 hrs, 24 hrs fasting, sugar feeder provided for free choice", "value": "26-47%"},
      {"measurement": "Death Rate", "setting": "female mosquitoes; 0.1% rFOH, 5% sugar, CPDA, 50% corn syrup, 24 hrs, 24 hrs fasting, sugar feeder provided for free choice", "value": "22-30%"},
      {"measurement": "death after 24 hours of feeding", "setting": "female mosquitoes; 0.1% rFOH, 10% sucrose in CPDA, free choice with 10% sucrose feeder", "value": 43, "unit": "%"},
      {"measurement": "death after 24 hours of feeding", "setting": "female mosquitoes; 0.1% rFOH, 10% sucrose in CPDA, single feeder", "value": 44, "unit": "%"},
      {"measurement": "Death Rate", "setting": "female mosquitoes; 0.1% rFOH, 10% sugar in CPDA, 24 hrs, 24 hrs fasting, sugar feeder not provided", "value": 65, "unit": "%"},
      {"measurement": "Death Rate", "setting": "female mosquitoes; 0.1% rFOH, 10% sugar in CPDA, 24 hrs, 24 hrs fasting, sugar plus CPDA feeder provided for free choice", "value": "59-80%"},
      {"measurement": "Death Rate", "setting": "female mosquitoes; 0.1% rFOH, 10% sugar in CPDA, 24 hrs, not fasted, sugar feeder provided for free choice", "value": 64, "unit": "%"},
      {"measurement": "Death Rate", "setting": "female mosquitoes; 0.1% rFOH, 10% sugar, no CPDA, 24 hrs, 24 hrs fasting, sugar feeder provided for free choice", "value": "44-50%"},
      {"measurement": "total death rate incl. residual death", "setting": "female mosquitoes; 0.1% rFOH, rFOH feeder replaced by sugar feeder, residual death within next 24 hours included", "value": "46-64%"},
      {"measurement": "death of female mosquitoes after 24 hours of feeding", "setting": "female mosquitoes; 0.15% rFOH", "value": "more than 90%"},
      {"measurement": "Death Rate", "setting": "female mosquitoes; 0.15% rFOH, 10% sucrose in CPDA, 24 hours feeding, two-choice with 10% sucrose feeder", "value": "over 80%"},
      {"measurement": "Death Rate", "setting": "female mosquitoes; 0.15% rFOH, 10% sugar in CPDA, 24 hrs, 24 hrs fasting, sugar feeder not provided", "value": "95-98%"},
      {"measurement": "Death Rate", "setting": "female mosquitoes; 0.15% rFOH, 10% sugar in CPDA, 24 hrs, 24 hrs fasting, sugar feeder provided for free choice", "value": "55-80%"},
      {"measurement": "time to death after ingestion", "setting": "female mosquitoes; 0.15% rFOH, female mosquitoes", "value": "2 to 5", "unit": "h"},
      {"measurement": "Death Rate", "setting": "female mosquitoes; 1% rFOH, 10% sucrose in CPDA, 24 hours feeding, two-choice with 10% sucrose feeder", "value": "over 80%"},
      {"measurement": "Death Rate", "setting": "female mosquitoes; 5% rFOH, 10% sugar in CPDA, 24 hrs, not fasted, sugar feeder not provided", "value": 94, "unit": "%"},
      {"measurement": "residual death in the next day", "setting": "female mosquitoes; after 24 hours feeding rFOH feeder removed, regular sugar feeder (10% sucrose) provided", "value": "5-20%"},
      {"measurement": "rFOH per mosquito corresponding to 0.15% rFOH", "setting": "female mosquitoes; assuming a female mosquito ingests as much as 0.6 μl of the composition, >90% death", "value": 0.001, "unit": "mg"},
      {"measurement": "Death Rate", "setting": "male mosquitoes", "value": 95, "unit": "%"},
      {"measurement": "MIC", "setting": "Escherishia coli DH5α", "value": "0.4% and 0.43%"},
      {"measurement": "MIC", "setting": "[1]", "value": 0.4, "unit": "%"},
      {"measurement": "MIC", "setting": "[2]", "value": 0.4, "unit": "%"}
    ]}
  ]
}
